Results: paper PMC11359702, “Synthesis and Biochemical Evaluation of Ethanoanthracenes and Related Compounds: Antiproliferative and Pro-Apoptotic Effects in Chronic Lymphocytic Leukemia (CLL)” (Pharmaceuticals, 2024)
Several values for one entry are separate records, joined by “and”; a condition that tells them apart may be missing. Equal values may be shown once. Read-outs that look alike come from different tables or passages of the source. Blank lines part the entries; values can stand above or below the compound they belong to.

Legend:
[1] = tested on: HG-3 cells; assay: alamarBlue cell viability assay; settings: HG-3, 24 h; for viability at 10 µM: read-out: cell viability, HG-3, 10 µM, 24 h, vehicle = 100%; for IC50: read-out: HG-3 IC50
[2] = tested on: PGA-1 cells; assay: alamarBlue cell viability assay; settings: for viability at 10 µM: read-out: cell viability; for IC50: read-out: PGA-1 IC50
[3] = HPLC stability study in phosphate buffers; format: physicochemical; settings: for recovery at 24 h: over the pH range studied (pH 4, 7.4 and 9); for % remaining 24 h pH 4 / % remaining 24 h pH 7.4 / % remaining 24 h pH 9 / remaining at 24 h, 14.6 µg/mL: HPLC; for remaining at 24 h, 14.6 µg/mL / half-life at 14.6 µg/mL: phosphate buffer
Description: A preliminary stability study was carried out on selected chalcones, maleic anhydride and maleimide adducts at acidic, neutral and basic conditions (pH 4, 7.4 and 9) using HPLC to determine suitability for further preclinical investigations. […] A possible degradation route for the maleimide 23n could be through the hydrolysis of the cyclic imide of the maleimide ring, leading to the resultant amic acid product.
All samples were analyzed using acetonitrile–water (80:20%, 70:30%, 60:40% isocratic) as the mobile phase over 10 min and a flow rate of 1 mL/min. Stock solutions were prepared by dissolving 5 mg of compounds in a mobile phase ([(acetonitrile (80%): water (20%)], 10 mL). Anhydride 22h was not detected at its retention time of 5.2 min at pH 9.0. The data presented represent the results of single experiments.
The HPLC stability studies for compounds 21a, 21i, 22h, 23a, 23g, 23n, 24a, 24h, 26a and 26n were performed using a Symmetry® column (C18, 5 µm, 4.6 × 150 mm), a Waters 2487 Dual Wavelength Absorbance detector, and an HPLC pump: Waters 1525 binary and Autosampler; Waters 717 plus (Waters Corporation, Milford, MA, USA), mobile phase [(acetonitrile (80%) and water (20%)] with a typical run time of 10 min and a flow rate of 1 mL/min with detection at 254 nm. The selected compounds 21a, 21i, 22h, 23a, 23g, 23n, 24a, 24h, 26a and 26n (5 mg) in the mobile phase (10 mL) provided the stock solution for the analysis. The phosphate buffers were prepared at pH values of 4, 7.4 and 9, as described in the British Pharmacopoeia monograph 2019. The stock solution (30 µL) was added to the appropriate buffer (1 mL) and retained at 37 °C. Samples were then analyzed over the following 24-h period at selected time intervals (t = 0 min, 5 min, 30 min, 60 min, 90 min, 120 min and 24 h).

[4] = tested on: HG-3 and PGA-1 cell lines; assay: alamarBlue cell viability assay, mean of both CLL cell lines; format: cell-based, human; settings: mean of HG-3 and PGA-1
[5] = tested on: HG-3 cells
[6] = tested on: PGA-1 cells; settings: 10 µM

Compound: O=C(/C=C/c1c2ccccc2cc2ccccc12)c1ccccn1 [Compound 21n, (E)-3-(anthracen-9-yl)-1-(pyridin-2-yl)prop-2-en-1-one]
viability at 1 µM ([1]; Homo sapiens, read-out: cell viability, HG-3, 1 µM, 24 h, vehicle = 100%): 50 to 61% | viability at 10 µM ([1]; Homo sapiens): 37 to 54% | viability at 10 µM ([2]; Homo sapiens, 24 h): 47%

recovery at 24 h [3]: < 50% | Half-life pH 4 ([3]; pH 4 buffer, 37 °C): 2.1 h | % remaining 24 h pH 4 ([3]; pH 4 buffer, 37 °C): 0.81% | Half-life pH 7.4 ([3]; pH 7.4 buffer, 37 °C): 1 h | % remaining 24 h pH 7.4 ([3]; pH 7.4 buffer, 37 °C): 3.13% | % remaining 24 h pH 9 ([3]; pH 9 buffer, 37 °C): not detected
Compound: O=C(/C=C/C12c3ccccc3C(c3ccccc31)C1C(=O)OC(=O)C12)c1ccc(F)cc1 (stereo not shown) [Compound 22h]

Compound: COc1ccc(C(=O)/C=C/C23c4ccccc4C(c4ccccc42)C2C(=O)NC(=O)C23)cc1 (stereo not shown) [Compound 23i, (E)-9-(3-(4-Methoxyphenyl)-3-oxoprop-1-en-1-yl)-9,10-dihydro-9,10-[3,4]epipyrroloanthracene-12,14-dione]
IC50 [4]: 11.4 µM | IC50 [1]: 10.3 µM | IC50 ([2]; PGA-1, 24 h): 12.6 µM

Compound: COc1cc(C(=O)/C=C/C23c4ccccc4C(c4ccccc42)C2C(=O)NC(=O)C23)cc(OC)c1OC (stereo not shown) [Compound 23k, (E)-9-(3-Oxo-3-(3,4,5-trimethoxyphenyl)prop-1-en-1-yl)-9,10-dihydro-9,10-[3,4] epipyrroloanthracene-12,14-dione]
IC50 [4]: 5.19 µM | IC50 [1]: 4.9 µM | IC50 ([2]; PGA-1, 24 h): 5.38 µM

recovery at 24 h [3]: < 50% | remaining at 24 h, 14.6 µg/mL ([3]; pH 4 buffer, 37 °C, read-out: % remaining 24 h pH 4): 48.4% | half-life at 14.6 µg/mL ([3]; pH 4 buffer, 37 °C, read-out: Half-life pH 4 (converted)): 4.17 h | remaining at 24 h, 14.6 µg/mL ([3]; pH 7.4 buffer, 37 °C, read-out: % remaining 24 h pH 7.4): 45.2% | half-life at 14.6 µg/mL ([3]; pH 7.4 buffer, 37 °C, read-out: Half-life pH 7.4 (converted)): 23.5 h | remaining at 24 h, 14.6 µg/mL ([3]; pH 9 buffer, 37 °C, read-out: % remaining 24 h pH 9): 33.6% | half-life at 14.6 µg/mL ([3]; pH 9 buffer, 37 °C, read-out: Half-life pH 9 (converted)): 23.5 h
Compound: O=C(/C=C/C12c3ccccc3C(c3ccccc31)C1C(=O)N(c3ccccc3)C(=O)C12)c1ccc(Br)cc1 (stereo not shown) [Compound 24a]
viability at 10 µM ([1]; Homo sapiens): 14% | viability at 10 µM ([2]; Homo sapiens, 24 h): 25%

Half-life pH 4 ([3]; pH 4 buffer, 37 °C): 14.8 h | % remaining 24 h pH 4 ([3]; pH 4 buffer, 37 °C): 25% and 24.97% | Half-life pH 7.4 ([3]; pH 7.4 buffer, 37 °C): > 24 h | % remaining 24 h pH 7.4 ([3]; pH 7.4 buffer, 37 °C): 80% and 79.48% | Half-life pH 9 ([3]; pH 9 buffer, 37 °C): > 24 h | % remaining 24 h pH 9 ([3]; pH 9 buffer, 37 °C): 81% and 80.99%
Compound: O=C(/C=C/C12c3ccccc3C(c3ccccc31)C1C(=O)N(c3ccccc3)C(=O)C12)c1ccc(F)cc1 (stereo not shown) [Compound 24h]

Compound: O=C(C=CC12c3ccccc3C(c3ccccc31)C1C(=O)N(c3ccccc3)C(=O)C12)c1ccccn1 (stereo not shown) [Compound 24n, 9-(E)-3-Oxo-3-(pyridin-2-yl)prop-1-en-1-yl)-13-phenyl-9,10-dihydro-9,10-[3,4]epipyrroloanthracene-12,14-dione]
cell viability ([5]; 1 µM): 48% | cell viability ([5]; 10 µM): 4%

Compound: O=C(C=CC12c3ccccc3C(c3ccccc31)C1C(=O)N(c3ccccc3)C(=O)C12)c1cccs1 (stereo not shown) [Compound 24q, 9-(E)-3-Oxo-3-(thiophen-2-yl)prop-1-en-1-yl)-13-phenyl-9,10-dihydro-9,10-[3,4]epipyrroloanthracene-12,14-dione]
cell viability ([5]; 10 µM): 24%

Compound: O=C(C=CC12c3ccccc3C(c3ccccc31)C1C(=O)N(c3ccc(Cl)cc3)C(=O)C12)c1ccc(Br)cc1 (stereo not shown) [Compound 25a, (E)-9-(3-(4-Bromophenyl)-3-oxoprop-1-en-1-yl)-13-(4-chlorophenyl)-9,10-dihydro-9,10-[3,4]epipyrroloanthracene-12,14-dione]
cell viability [6]: 33%

Compound: O=C(/C=C/C12c3ccccc3C(c3ccccc31)C1C(=O)N(c3ccc(Cl)cc3)C(=O)C12)c1ccc(F)cc1 (stereo not shown) [Compound 25h, (E)-13-(4-Chlorophenyl)-9-(3-(4-fluorophenyl)-3-oxoprop-1-en-1-yl)-9,10-dihydro-9,10[3,4]epipyrroloanthracene-12,14-dione]
cell viability ([5]; 10 µM): 35%

Compound: O=C(C=CC12c3ccccc3C(c3ccccc31)C1C(=O)N(c3ccc(Cl)cc3)C(=O)C12)c1cccs1 (stereo not shown) [Compound 25q, (E)-13-(4-Chlorophenyl)-9-(3-oxo-3-(thiophen-2-yl)prop-1-en-1-yl)-9,10-dihydro-9,10-[3,4]epipyrroloanthracene-12,14-dione]
cell viability ([5]; 10 µM): 47%

Compound: O=C(c1ccccc1)c1ccc(N2C(=O)C3C4c5ccccc5C(/C=C/C(=O)c5cccs5)(c5ccccc54)C3C2=O)cc1 (stereo not shown) [Compound 26q, (E)-13-(4-Benzoylphenyl)-9-(3-oxo-3-(thiophen-2-yl)prop-1-en-1-yl)-9,10-dihydro-9,10-[3,4]epipyrroloanthracene-12,14-dione]
cell viability ([5]; 10 µM): 56%

Compound: Nc1nc(F)nc2c1ncn2[C@@H]1O[C@H](CO)[C@@H](O)[C@@H]1O [Fludarabine, fludarabine, reference compound]
IC50 ([4]; Homo sapiens, CLL cell): 30.1 µM | IC50 ([1]; Homo sapiens): 28.1 µM | IC50 ([2]; Homo sapiens, 24 h): 32 µM
